Here are results for one compound from patent US20050176740A1, “Cancer treatment method comprising administering an erb-family inhibitor and a raf and/or ras inhibitor” (priority 2002, published 2005).

Structures are written as SMILES.

Holding throughout (format): cell-based, human
Test [1] has as its system pTyr in erbB-2 transfected HB4a cells. The experiment in a line: Western blot of tyrosine phosphorylation (pTyr) after GW2016 treatment, FIG. 2. As to conditions: 1 μM or 5 μM GW2016/72 hours. As to the method:
(§1) The HB4a cell line was derived from human mammary luminal tissue. HB4a-erbB2 and HB4a-ras cell lines were generated by overexpression of erbB2 and mutant Ha-(Val-12)-ras in HB4a cell line. The S1 cell line was established by sub-cloning ErbB-2 transfected HB4a (see Harris R A, Eichholtz T J, Hiles J D, Page M J and O'Hare M J. (1999). Int J. Cancer. 80, 477, 484.)
(§2) HB4a cells grew in RPMI 1640 supplemented with L-glutamine, 10% FBS (Hyclone), 10 ug/ml hydrocortisone, and 5 ug/ml insulin. S1 and ras transfected cells were cultured in RPMI 1640 supplemented with L-glutamine, 10% FBS and 50 μg/ml hygromycin. Cell cultures were maintained in a humidified atmosphere of 5% CO2 at 37° C.
(§3) (a) The dual EGFR/erbB-2 inhibitor N-{3-Chloro-4-[(3-fluorobenzyl)oxy]phenyl}-6-[5-({[2-(methanesulphonyl)ethyl]amino}methyl)-2-furyl]-4-quinazolinamine and the cRaf-1 inhbitor of 3-(3,5-Dibromo-4-hydroxy-benzylidene)-5-iodo-1,3-dihydro-indol-2-one were dissolved in 100% DMSO to form solutions of 1, 5, 10, and 20 μM concentrations and tested on cells in growth medium for 3 continuous days. […]
(§4) Whole cell extracts were prepared by scraping cells off petri dishes, washing the cell pellet twice in PBS, and then resuspending the pellet in two-packed-cell volumes of RIPA buffer (150 mM NaCl, 50 mM Tris-HCl, pH 7.5, 0.25% deoxycholate, 1% NP-40, 5 mM sodium orthovanadate, 2 mM sodium fluoride and a protease inhibitor cocktail). Protein concentrations were determined using a modification of the Bradford method (Bio-Rad Laboratory). Steady state levels of total erbB-2, EGFR, Ras, Erk1/2, pErk1/2 and pTyr protein were assessed by Western blot which was carried out as follows: equal amounts of proteins was resolved by 7.5% SDS polyacrylamide gel electrophoresis under reducing conditions. […] Efficiency and equal loading of proteins was evaluated by Ponceau S staining. […]
(§5) HB4a cells growing in RPMI 1640 supplemented with L-glutamine, 10% FBS (Hyclone), 10 ug/ml hydrocortisone, and 5 μg/ml insulin. […] Protein concentrations were determined using a modification of the Bradford method (Bio-Rad Laboratory).
In general terms: In western blotting, separated proteins are transferred to a membrane and probed.

Test [2] relates to pTyr in Ha-(Val12)-ras transfected HB4a cells. The description is as above. As to conditions: 1 μM or 5 μM GW2016/72 hours. The method, then: as §1, §2, §3, §4, §5
Test [3] deals with pTyr in parental HB4a cells. The test is described as above. The settings on record: 1 μM or 5 μM GW2016/72 hours. The method, then: as §1, §2, §3, §4, §5
In test [4] the test system is pErk1/Erk2 in erbB-2 transfected HB4a cells. The experiment in a line: Western blot of MAPK activation (pErk1/Erk2) after GW2016 treatment, FIG. 3. As to conditions: 1 μM or 5 μM GW2016/72 hours. As to the method: as §1, §2, §3, §4, §5
Test [5] has as its system pErk1/Erk2 in Ha-(Val12)-ras transfected HB4a cells. Described as above. As to conditions: Ha-(Val 12)-ras transfected HB4a cells; 1 μM or 5 μM GW2016/72 hours. As to the method:
as §1, §2, §3, §4, §5

Test [6] relates to pErk1/Erk2 in parental HB4a cells. The test is described as above. As to conditions: 1 μM or 5 μM GW2016/72 hours. As to the method:
as §1, §2, §3, §4, §5

Consider `CS(=O)(=O)CCNCc1ccc(-c2ccc3ncnc(Nc4ccc(OCc5cccc(F)c5)c(Cl)c4)c3c2)o1` [GW2016, N-{3-Chloro-4-[(3-fluorobenzyl)oxy]phenyl}-6-[5-({[2-(methanesulphonyl)ethyl]amino}methyl)-2-furyl]-4-quinazolinamine], for which the “tyrosine phosphorylation (pTyr), Western blot” value in test [1] and in test [3] was “reduction in tyrosine phosphorylation” each time. In addition, the “effect on phosphorylation on tyrosine residues (pTyr), Western blot” value in test [2] is given as “no effect”. The “pErk1/Erk2, Western blot” value in test [4] is recorded as “decrease in pErk1/Erk2”. Also, the “phosphorylation of Erk1/Erk2, Western blot” value in test [5] was “no effect”. The “Erk1/Erk2 phosphorylation, Western blot” value in test [6] is on record as “reduction in Erk1/Erk2 phosphorylation”.
